Data taken from US20150320762A1, “TREATMENT OF PROLIFERATIVE DISEASES WITH PYRIMIDODIAZEPINONES” (Cyclacel limited, priority 2012, published 2015).
Like-named read-outs stand apart in the source and are kept apart here.

What was measured:
[1] = mouse, dose 35 mg/kg, Rudolph et al.; cited from earlier work
[2] = Mouse PK data for selected compounds of the invention; assay type: in vivo; conditions: dose 1 mg/kg; for AUC / Cmax: plasma
Description: The plasma concentration is measured using standard LC-MS/MS analysis based on the following method. Calibration and control samples are prepared as follows from a 500 μg/mL solution of compound in methanol/DMSA 50/50 v/v. This stock solution is used to prepare diluted working standards of the test items with concentrations from 200 ng/ml to 500,000 ng/ml. The solutions are diluted with methanol and stored at +4° C. in glass vials when not in use. The working solutions are used to prepare calibration standards in control plasma, with a final concentration of between 10 ng/ml and 5000 ng/ml per 100 microlitres of plasma. These standards are prepared on day one of analysis and re-prepared as necessary on each analytical occasion. Internal standards are dissolved in methanol/DMSA 50/50 v/v and diluted to 1 μg/mL in acetonitrile for a working solution.
Plasma samples are extracted by the following method. Transfer 50 microlitres of each calibration, quality control and test sample to a 96-well mictrotitre plate. Add 200 microlitres of a 1 microgram per millilitre internal standard solution in acetonitrile to all samples except for a double blank. 200 microlitres of acetonitrile is added to the double blank. Samples are briefly vortex mixed, and centrifuged at 2128 g for 30 minutes. Recoverable supernatant is transferred to an appropriate well of a microtitre plate and extracts are evaporated with oxygen free nitrogen at a gas temperature of about 40° C. Extracts are reconstituted in 200 μL of mobile phase and mixed well. The plate is sealed with silicone-based pre-pierced web seal and used for LC-MS/MS analysis.
LC-MS/MS analysis can be performed using the following chromatography conditions.

[3] = tested on: BAC and ESCC cell lines versus the benign OE cell line (CPA); experiment: 96-well drug washout/outgrowth anti-proliferative assay (resazurin, day 6); assay type: cell-based; conditions: all timepoints
Description: Tumour sensitivity towards Plk1 inhibitors was studied in a panel of oesophageal (OE) cell lines. The cell lines used were: a benign Barrett's (CPA), two Barrett's adenocarcinoma (OE19 and OE33; Sigma Aldrich), and two oesophageal squamous cell carcinoma cell lines (OE21, ECACC; and KYSE-410, ECACC).
The anti-proliferative effect of Plk1 inhibitors was studied in a 96-well format drug washout/outgrowth assay. Cells were seeded at 1.5-2.5×10^3 cells per well in 96-well plates and left to incubate overnight at 37° C., 5% CO2, before addition of a range of concentrations of each of the different Plk1 inhibitors. Cells were incubated with the compounds for various periods of time, ranging from 3 to 24 hours; media containing the compounds was then removed from the cells and replaced with drug-free media until the end of the assay. The cell viability was evaluated on day 6 using a standard resazurin-based assay according to manufacturer's instructions (AlamarBlue, AbD Serotec, Oxford, UK). The IC50 values were determined using IDBS software.

| Cl_obs [2] [mL/min/kg] | HL_Lambda_z [2] [h] | Vz_obs [2] [L/kg] | AUC [2] [ng·h/mL] | Cmax [2] [ng/mL] | SMILES | Cl_obs [1] [mL/min/kg] | Cmax [1] [ng/mL] | HL_Lambda_z [1] [h] | Vz_obs [1] [L/kg] | differentiation between the cancerous and the benign cell lines [3] |
| --- | --- | --- | --- | --- | --- | --- | --- | --- | --- | --- |
| 21.22 | 2.89 | 5.304 | 631 | 478 | COc1cc(C(=O)N[C@H]2CC[C@H](N3CCN(CC4CC4)CC3)CC2)ccc1Nc1ncc2c(n1)N(C1CCCC1)CC1(CC1)C(=O)N2C [Compound A1, 4-(9′-cyclopentyl-5′-methyl-6′-oxo-5′,6′,8′,9′-tetrahydrospiro[cyclopropane-1,7′-pyrimido[4,5-b][1,4]diazepine]-2′-ylamino)-N-((trans)-4-(4-(cyclopropylmethyl)piperazin-1-yl)cyclohexyl)-3-methoxybenzamide] |  |  |  |  |  |
| 40.75 | 1.97 | 6.937 | 377 | 453 | COc1cc(C(=O)N[C@H]2CC[C@H](N3CCN(C)CC3)CC2)ccc1Nc1ncc2c(n1)N(C1CCCC1)CC1(CC1)C(=O)N2C [Compound A7, 4-(9′-cyclopentyl-5′-methyl-6′-oxo-5′,6′,8′,9′-tetrahydrospiro[cyclopropane-1,7′-pyrimido[4,5-b][1,4]diazepine]-2′-ylamino)-N-((trans)-4-(4-methylpiperazin-1-yl)cyclohexyl)-3-methoxybenzamide] |  |  |  |  |  |
| 99.8 | 0.78 | 6.713 | 164 | 405 | COc1cc(C(=O)NC2CCN(C3CCOCC3)CC2)ccc1Nc1ncc2c(n1)N(C1CCCC1)CCC(=O)N2C [Compound A13, 4-(9-cyclopentyl-5-methyl-6-oxo-6,7,8,9-tetrahydro-5H-pyrimido[4,5-b][1,4]diazepin-2-ylamino)-3-methoxy-N-[1-(tetrahydro-pyran-4-yl)-piperidin-4-yl]-benzamide] |  |  |  |  |  |

The remaining lines, values behind:

| SMILES | Cl_obs [2] [mL/min/kg] | HL_Lambda_z [2] [h] | Vz_obs [2] [L/kg] | AUC [2] [ng·h/mL] | Cmax [2] [ng/mL] | Cl_obs [1] [mL/min/kg] | Cmax [1] [ng/mL] | HL_Lambda_z [1] [h] | Vz_obs [1] [L/kg] | differentiation between the cancerous and the benign cell lines [3] |
| --- | --- | --- | --- | --- | --- | --- | --- | --- | --- | --- |
| CC[C@@H]1C(=O)N(C)c2cnc(Nc3ccc(C(=O)N[C@H]4CC[C@H](N5CCN(CC6CC6)CC5)CC4)cc3OC)nc2N1C(C)C [BI6727] |  |  |  |  |  | 10 | 4390 | 46 | 7.6 |  |
| CC[C@@H]1C(=O)N(C)c2cnc(Nc3ccc(C(=O)NC4CCN(C)CC4)cc3OC)nc2N1C1CCCC1 [BI2536] |  |  |  |  |  |  |  |  |  | little or no differentiation |
